From patent US8093028B2, “Engineered glycosyltransferases with expanded substrate specificity” (Wisconsin Alumni Research Foundation, priority 2007, dated 2012)

Assays:
Type in all cases: biochemical
WT OleD [1] = target: T1, WT OleD (Streptomyces antibioticus, UniProt Q53685, P55A/R82V/R83E/T84P); experiment: Fluorescence-based glycosyltransferase assay in E. coli crude cell extracts
T1 construct: made in house; host or cells: E. coli BL21(DE3)pLysS, plasmid pET28/OleD
Experimental: Individual colonies were used to inoculate wells of a 96-deep well microtitre plate wherein each well contained 1 ml of LB medium supplemented with 50 μg/ml kanamycin. Culture plates were tightly sealed with AeraSeal™ breathable film (Research Products International Corp.). After cell growth at 37° C. for 18 h with shaking at 350 rpm, 100 μl of each culture was transferred to a fresh deep-well plate containing 1 ml of LB medium supplemented with 50 μg/ml kanamycin. The original plate was sealed and stored at 4° C., or a glycerol copy made by mixing 100 μl of each culture with 100 µl 50% (v/v) glycerol and storing at −80° C. The freshly inoculated plate was incubated at 37° C. for 2-3 h with shaking at 350 rpm. […]
For the assay, cleared supernatant was mixed with an equal volume (501) of 50 mM Tris-HCl (pH 8.0) containing 10 mM MgCl2, 0.2 mM 4-Me-umb (FIG. 1: 4), and 1.0 mM UPDG (FIG. 3: 2) using a Biomek FX Liquid Handling Workstation (Beckman Coulter, Fullerton, Calif.). Upon mixing, the fluorescence at excitation 350 nm and emission 460 nm was measured using a FLUOstar Optima plate reader (BMG Labtechnologies, Durham, N.C.) and the reactions incubated for 4 h at 30° C., at which time the fluorescence measurement was repeated. Activity of the clones was expressed as the difference in fluorescence intensity between 0 h and 3 h.

OleD G340W = target: T2, OleD G340W (Streptomyces antibioticus, UniProt Q53685, G340W/P55A/R82V/R83E/T84P); experiment: Specific activity with novobiocic acid or 4-Me-umb as acceptor and UDP-Glc; settings: UDP-Glc donor
T2 construct: made in house; host or cells: E. coli (site-directed mutant of pET28/OleD)
Experimental: (§1) Determination of specific activity with 1 or 4 as acceptor. Enzyme reactions were carried out in a total volume of 100 μl/50 mM Tris-HCl (pH8.0) containing 5 mM MgCl2, 200 μM (FIG. 9: 1) or (FIG. 9: 4), 5 mM (FIG. 12: 5), and typically 10-50 μg pure enzyme. At a suitable time interval during which rate of product formation was linear with time (typically 2-20 min), reactions were quenched with 100 μl MeOH, and the samples centrifuged at 10,000 g for 10 min. Supernatants were analyzed by analytical reverse-phase HPLC with a Gemini 5μ C18 column (Phenomenex) using a gradient of 10-90% CH3CN in 0.1% trifluoroacetic acid (TFA)/H2O in 20 min, with detection at 254 nm. […] The identity of (FIG. 9: 7) was confirmed by LC-MS and NMR while the […] of glucoside (FIG. 9: 6) was confirmed by co-elution with a commercial standard and LC-MS analysis. HPLC peak areas were integrated, and the product concentrations calculated as a percent of the total peak area. Specific activity was expressed as nmols product formed/min/mg protein.

OleD I112T = target: T3, OleD I112T (Streptomyces antibioticus, UniProt Q53685, I112T/P55A/R82V/R83E/T84P); experiment: as above; settings: UDP-Glc donor
T3 construct: made in house; host or cells: E. coli (site-directed mutant of pET28/OleD)
Experimental: as §1

OleD A242V = target: T4, OleD A242V (Streptomyces antibioticus, UniProt Q53685, A242V/P55A/R82V/R83E/T84P); experiment: as above; settings: UDP-Glc donor
T4 construct: made in house; host or cells: E. coli BL21(DE3)pLysS (error-prone PCR clone in pET28a)
Experimental: as §1

OleD P67T = target: T5, OleD P67T (Streptomyces antibioticus, UniProt Q53685, P55A/P67T/R82V/R83E/T84P); experiment: as above; settings: UDP-Glc donor
T5 construct: made in house; host or cells: E. coli (site-directed mutant of pET28/OleD)
Experimental: as §1

OleD S132F = target: T6, OleD S132F (Streptomyces antibioticus, UniProt Q53685, P55A/R82V/R83E/S132F/T84P); experiment: as above; settings: UDP-Glc donor
T6 construct: made in house; host or cells: E. coli (site-directed mutant of pET28/OleD)
Experimental: as §1

WT OleD [2] = target: T1, WT OleD; settings: named substrate varied, other substrate fixed at 5 mM
Experimental: Determination of kinetic parameters. Enzyme assays were carried out in a total volume of 100 μl 50 mM Tris-HCl (pH 8.0) containing 5 mM MgCl2, and typically 10-50 μg pure enzyme. Kinetic parameters kcat and Km were determined with both (FIG. 9: 1) and (FIG. 12: 5) as variable substrates. […] Each experiment was performed in triplicate. Aliquots ([…]) were removed between 0 and 30 min, at which time product formation was still linear with respect to time, and quenched with 100 μl of ice-cold MeOH, and centrifuged at 10,000 g for 10 min. Supernatants were analyzed by analytical reverse-phase HPLC as described above. The substrate (FIG. 9: 1) and the glucoside product (FIG. 9: 7) HPLC peak areas were integrated, and the product concentration calculated as a percent of the total peak area. Initial velocities were fitted to the Michaelis-Menten equation using Sigma Plot.

OleD P67T/I112K/A242V = OleD P67T/I112K/A242V (Streptomyces antibioticus, UniProt Q53685, A242V/I112K/P67T); experiment: Specific activity with novobiocic acid as acceptor and UDP-Glc; settings: UDP-Glc donor
Experimental: as §1

OleD P67T/S132F/A242V = target: T7, OleD P67T/S132F/A242V (Streptomyces antibioticus, UniProt Q53685, A242V/P67T/S132F); experiment: as above; settings: UDP-Glc donor
T7 construct: made in house; host or cells: E. coli (site-directed mutant of pET28/OleD)
Experimental: as §1

| SMILES | activity in E. coli pET28/OleD crude cell extracts versus extracts not over-expressing OleD (WT OleD [1]) [fold] | specific activity, G340W compared to WT OleD (OleD G340W) | specific activity, I112T compared to WT OleD (OleD I112T) | improvement in specific activity, A242V compared to WT OleD (OleD A242V) | improvement in specific activity, P67T compared to WT OleD (OleD P67T) | improvement in specific activity, S132F compared to WT OleD (OleD S132F) | Km (WT OleD [2]) [µM] | kcat (WT OleD [2]) [s⁻¹] | improvement in specific activity, P67T/I112K/A242V over P67T/S132F/A242V (OleD P67T/I112K/A242V) | improvement, P67T/I112K/A242V over the parent P67T/I112T/A242V (OleD P67T/I112K/A242V; purified enzymes) | improvement in glucosylation activity, P67T/S132F/A242V compared to WT OleD (OleD P67T/S132F/A242V) |
| --- | --- | --- | --- | --- | --- | --- | --- | --- | --- | --- | --- |
| Cc1cc(=O)oc2cc(O)ccc12 [4-Me-umb (4), 7-hydroxy-4-methylcoumarin] | ~2 | approximately 0.5 fold | approximately 0.5 fold | ~2.3 fold | approximately 7 fold | ~2.6 fold | – | – | – | – | – |
| CC(C)=CCc1cc(C(=O)Nc2c(O)c3ccc(O)c(C)c3oc2=O)ccc1O [novobiocic acid (29), novobiocic acid] | – | non-beneficial | 7.4 fold | two-three fold | two-three fold | two-three fold | 2000 | 0.000683 | twenty-eight | seven | five-fold |
